Laboratory results: patent publication US20160220524A1, “COMPOSITIONS OF SMALL MOLECULE THERAPEUTICS” (NEXMED HOLDINGS, INC., priority 2015, published 2016)
Structures can show the parent of a compound that is named as a salt.

Assays:
[1] = water; cited from earlier work
[2] = Procedure: The compounds from BCS Class 2, 3 and 4 were each formulated at 5 mg/ml in a liquid carrier of either an aqueous solution of polyethylene glycol 400 (20% PEG 400), or an aqueous solution of DDAIP-HCL (20%). […] Cohorts of three animals per group were placed in the study. On day 1, animals from each group were dosed at 30 mg/kg (6 ml/kg) by oral gavage (PO). Animals were fed at the time of dosing. Serial blood samples were collected at pre-dose, and after post-dose intervals of 30 minutes, 1 hour, 2 hours and 4 hours. The blood samples were collected into lithium heparin-coated tubes. At each time point, 0.15 ml of blood was collected via left jugular vein cannulae and processed for collection of plasma by centrifuging at approximately 2,000 rpm for approximately 10 minutes. The cellular fraction of the blood was discarded. Collection times and volume of plasma samples were recorded and tabulated. Plasma samples were transferred into clean tubes and snap frozen onto dry ice. Samples were stored at −80° C. until ready for bio-analysis by LC/MS/MS. The drug concentration was measured from supernatant after centrifugation of the dosing solution
P-glycoprotein (P-gp) = P-glycoprotein (P-gp) (Homo sapiens, UniProt P08183); experiment: Inhibition of P-glycoprotein; assay type: in vitro ADME; details: up to 10 mM
Chain of P-glycoprotein (P-gp) (P08183 whole entry): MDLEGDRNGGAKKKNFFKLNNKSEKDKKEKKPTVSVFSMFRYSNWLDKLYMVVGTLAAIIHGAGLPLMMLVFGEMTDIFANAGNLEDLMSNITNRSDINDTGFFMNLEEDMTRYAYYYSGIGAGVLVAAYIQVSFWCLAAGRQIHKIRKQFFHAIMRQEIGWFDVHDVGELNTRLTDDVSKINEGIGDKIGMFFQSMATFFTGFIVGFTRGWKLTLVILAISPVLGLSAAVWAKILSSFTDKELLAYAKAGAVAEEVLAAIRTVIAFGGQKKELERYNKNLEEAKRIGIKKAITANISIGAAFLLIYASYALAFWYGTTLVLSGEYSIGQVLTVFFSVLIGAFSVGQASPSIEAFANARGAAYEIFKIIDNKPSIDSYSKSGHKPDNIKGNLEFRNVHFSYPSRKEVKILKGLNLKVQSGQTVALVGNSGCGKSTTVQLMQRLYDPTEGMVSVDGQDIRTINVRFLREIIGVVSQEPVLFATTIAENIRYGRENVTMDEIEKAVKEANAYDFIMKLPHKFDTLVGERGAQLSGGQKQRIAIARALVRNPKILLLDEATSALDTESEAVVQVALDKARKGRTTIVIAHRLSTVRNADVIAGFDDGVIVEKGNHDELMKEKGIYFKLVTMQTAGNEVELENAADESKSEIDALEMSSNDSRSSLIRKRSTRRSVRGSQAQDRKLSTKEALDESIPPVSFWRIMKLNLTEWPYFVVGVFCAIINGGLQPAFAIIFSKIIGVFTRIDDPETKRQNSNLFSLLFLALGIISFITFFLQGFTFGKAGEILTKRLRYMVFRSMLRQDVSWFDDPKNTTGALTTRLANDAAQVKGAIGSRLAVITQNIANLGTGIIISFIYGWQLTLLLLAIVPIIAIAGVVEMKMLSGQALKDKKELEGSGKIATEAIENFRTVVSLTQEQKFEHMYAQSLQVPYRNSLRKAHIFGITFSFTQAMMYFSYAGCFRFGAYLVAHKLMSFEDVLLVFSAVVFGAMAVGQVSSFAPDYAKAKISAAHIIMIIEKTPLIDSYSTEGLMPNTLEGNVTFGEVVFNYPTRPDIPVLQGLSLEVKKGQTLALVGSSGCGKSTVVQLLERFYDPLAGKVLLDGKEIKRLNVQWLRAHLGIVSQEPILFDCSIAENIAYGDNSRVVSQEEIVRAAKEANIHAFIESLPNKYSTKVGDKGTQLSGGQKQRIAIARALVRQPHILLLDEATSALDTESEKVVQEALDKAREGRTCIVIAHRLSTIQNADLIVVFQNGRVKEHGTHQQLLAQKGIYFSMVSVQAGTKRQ

Compound	Sol. H2O (reported solubility from the literature) [1] [µg/mL]	Sol. over PEG (solubility improvement fold over PEG 400) [2] [fold]	inhibition of P-glycoprotein (P-gp) (P-glycoprotein (P-gp))	form of the 5 mg/ml formulation (suspension or solution) [2]
N[C@H]1C(O)O[C@H](CO)[C@@H](O)[C@@H]1O (stereo partly drawn) [Glucosamine, glucosamine]	551000	–	–	–
NS(=O)(=O)c1cc2c(cc1Cl)N=CNS2(=O)=O [Chlorothiazide, chlorothiazide]	300	>363	–	–
CCCCCCCCCCCCOC(=O)C(C)N(C)C (stereo not drawn) [DDAIP-HCL, dodecyl 2-(N,N-dimethylamino) propionate]	–	–	no inhibition	–
O=C(O)c1cc(/N=N/c2ccc(S(=O)(=O)Nc3ccccn3)cc2)ccc1O [Sulfasalazine, sulfasalazine]	10	>446	–	suspensions
O=C(CCCN1CCC(O)(c2ccc(Cl)cc2)CC1)c1ccc(F)cc1 [Haloperidol, haloperidol]	1	–	–	suspensions
